“Also recorded” adds a separate entry of the source. Read-outs that look alike come from different tables or passages of the source. Marks after values point to notes of the source that are not given here.
Columns and labels:
D2L dopamine receptor = D2L dopamine receptor (Homo sapiens (Human), UniProt P14416); experiment: cell-based; assay type: cell-based
Method: (§1) The ability of the lead compound to dose-dependently decrease forskolin-induced cAMP levels is measured. The IC50 values for each receptor subtype is determined by fitting the data points using the Hill equation.
(§2) AtT-20 mouse pituitary cells were grown in Ham's F10 medium with 5% FBS, 10% heat-inactivated horse serum, 2 mM glutamine and 50 μg/ml gentamicin (Invitrogen, Carlsbad, Calif.). AtT-20 cells stabling expressing the human D2S, D2L, D3, and D4.2 and receptor were maintained in the above F10 culture media supplemented with 500 μg/ml G418 (Invitrogen). For electrophysiological characterization, cells were plated onto glass coverslips coated with 40 μg/ml poly L-lysine (Sigma-Aldrich). […] Physiol. […] Neurosci. […] Biophys. […] Neurosci.
(§3) The cAMP levels in each treated sample were assayed in triplicate and the entire experiment repeated three independent times.
(§4) To compare the functional effects of the new class of D3 receptor agonists, PBZI (Table 2) and ES609 (Table 3) were tested on AtT-20 cells stably expressing human D3, D2S, D2L or D4.2.

D4.2 dopamine receptor = D4.2 dopamine receptor (Homo sapiens (Human), UniProt P21917, DEL265-296); experiment: cell-based; assay type: cell-based
Method: as §1, §2, §3, §4

[1] = system: intrastriatal 6-OHDA lesioned rats; experiment: Forelimb stepping test in intrastriatal 6-OHDA lesioned rats; details: for motor deficits in a rat PD model: FIG. 18
D3 dopamine receptor = D3 dopamine receptor (Homo sapiens (Human), UniProt P35462); experiment: D3 receptor tolerance and SRT: GIRK response to repeated agonist application in AtT-20 cells; assay type: cell-based; details: AtT-20 cells expressing human D3, 100-300 nM agonist, repeated ~60 s applications
Method: To determine whether a compound abolishes the D3 receptor tolerance and SRT, the D3 receptor-activated GIRK response to two consecutive treatments of the lead compound is measured. […] Drug solutions were delivered to cells via a multi-barreled micropipette array. The current responses were normalized to the cell capacitance, to account for variation in cell size.
To identify agonists that might modulate D3 receptor tolerance and SRT properties, ten distinct agonists were screened for their ability to induce tolerance and SRT, using the D3 receptor-GIRK channel signaling pathway as an assay.

[2] = system: intrastriatal 6-OHDA lesioned rats; experiment: Levodopa-induced dyskinesia (AIMs score) in intrastriatal 6-OHDA lesioned rats; assay type: in vivo, rat; details: PBZI 17 mg/kg sc; for effect on levodopa-induced dyskinesia (AIMs score): given 10 minutes before 6 mg/kg levodopa, ES609 20 mg/kg
Method: In particular, rats in which unilateral intrastriatal lesion is induced by injection of 6-OHDA (7 μg) at three different sites in the ventrolateral striatum are used. The coordinates for the three injection sites are, in mm: injection site 1: AP: +1.0; ML: −3.0; DV: −5.0; injection site 2: AP: −0.1; ML: −3.7; DV: −5.0; injection site 3: AP: −1.2; ML: −4.5; DV: −5.0. Anterior-posterior (AP) and mediolateral (ML) coordinates are from bregma. The dorso-ventral (DV) coordinates are from dura. The toothbar location is 0.
Seven and half weeks after the lesion, chronic levodopa treatment (6 mg/kg, single dose per day given with 15 mg/kg benserazide) is initiated. Stepping test and AIMs scores are determined on day 1, 8, 10, 17 and 24 after the initiation of chronic levodopa treatment. […] AIMs are scored using a rating scale based on frequency and severity of the dyskinetic symptoms. It should be noted that the rank order of the various AIMs components in terms of frequency and severity in the rat model is: limb>orolingual=axial>>locomotor. This lesion model has been used to test the effect of PBZI on LID (Example 3).
FIG. 13A illustrates the effect of control, PD128907 (a tolerance inducing D2/D3 agonist) and PBZI (a non tolerance inducing D3/D3 agonist) on the total AIMs score (includes locomotor, axial, limb and orolingual) over time of a day 17 (chronic L-DOPA phase) lesioned animal.

D4.2 dopamine receptor, sequence (P21917 other isoform, or with tags, fused parts or gaps del 265-296): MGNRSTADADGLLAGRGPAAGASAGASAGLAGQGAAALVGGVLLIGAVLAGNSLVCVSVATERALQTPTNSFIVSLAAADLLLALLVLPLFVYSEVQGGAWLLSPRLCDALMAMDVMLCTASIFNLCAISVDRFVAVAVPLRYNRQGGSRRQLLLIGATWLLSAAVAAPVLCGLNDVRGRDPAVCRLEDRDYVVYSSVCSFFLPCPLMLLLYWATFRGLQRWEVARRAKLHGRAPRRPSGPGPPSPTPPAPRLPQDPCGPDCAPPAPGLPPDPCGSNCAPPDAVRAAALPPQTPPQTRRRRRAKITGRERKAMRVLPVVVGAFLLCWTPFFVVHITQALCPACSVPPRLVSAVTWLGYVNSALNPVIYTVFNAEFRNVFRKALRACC
D2L dopamine receptor, sequence (P14416 whole entry): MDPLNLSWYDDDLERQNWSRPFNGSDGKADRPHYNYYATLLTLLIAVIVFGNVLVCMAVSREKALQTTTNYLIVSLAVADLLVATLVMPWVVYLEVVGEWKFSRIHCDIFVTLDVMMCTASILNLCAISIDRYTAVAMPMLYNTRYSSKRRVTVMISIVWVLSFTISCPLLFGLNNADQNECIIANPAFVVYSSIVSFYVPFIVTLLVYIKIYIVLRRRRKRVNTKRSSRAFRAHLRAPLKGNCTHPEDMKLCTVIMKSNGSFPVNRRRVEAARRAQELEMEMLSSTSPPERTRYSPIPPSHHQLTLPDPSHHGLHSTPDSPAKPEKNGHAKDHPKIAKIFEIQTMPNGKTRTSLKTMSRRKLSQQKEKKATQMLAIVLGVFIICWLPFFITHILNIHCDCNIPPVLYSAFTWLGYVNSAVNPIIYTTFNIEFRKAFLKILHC
D3 dopamine receptor, sequence (P35462 other isoform, or with tags, fused parts or gaps): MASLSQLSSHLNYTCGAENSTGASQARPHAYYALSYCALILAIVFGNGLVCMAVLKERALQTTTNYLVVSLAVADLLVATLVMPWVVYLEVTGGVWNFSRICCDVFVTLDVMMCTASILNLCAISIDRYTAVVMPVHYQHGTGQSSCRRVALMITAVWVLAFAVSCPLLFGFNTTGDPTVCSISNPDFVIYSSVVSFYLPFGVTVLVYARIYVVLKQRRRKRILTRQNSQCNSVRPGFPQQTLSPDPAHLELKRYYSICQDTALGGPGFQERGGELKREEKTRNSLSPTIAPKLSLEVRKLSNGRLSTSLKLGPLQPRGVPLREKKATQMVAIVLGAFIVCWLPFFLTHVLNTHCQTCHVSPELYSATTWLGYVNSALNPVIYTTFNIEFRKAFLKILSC

CC(N)CCc1ccccc1Cl (centres unmarked) [ES609]
Adenylyl cyclase inhibition: agonist type (D2L dopamine receptor): did not elicit any response | Adenylyl cyclase inhibition EC50 (D2L dopamine receptor; AtT-20 cells, D2L): No response | Adenylyl cyclase inhibition Ratio of ES609 to quinpirole response (at 300 nM) (D2L dopamine receptor; D2L, 300 nM): 0^† | adenylyl cyclase inhibition at 300 nM (D2L dopamine receptor; D2L, 300 nM): ^†no adenylyl cyclase inhibition in the presence of 300 nM ES609; but 300 nM quinpirole elicits ~80% inhibition. | Adenylyl cyclase inhibition: agonist type (D2L dopamine receptor; listed as ES0609): No response | Adenylyl cyclase inhibition: agonist type (D4.2 dopamine receptor): partial agonist | EC50 (D4.2 dopamine receptor; AtT-20 cells, D4.2, read-out: Adenylyl cyclase inhibition EC50): 0.82 nM | Adenylyl cyclase inhibition Ratio of ES609 to quinpirole response (at 300 nM) (D4.2 dopamine receptor; D4.2, 300 nM): 0.60* | Adenylyl cyclase inhibition: agonist type (D4.2 dopamine receptor; listed as ES0609): Partial | motor deficits in a rat PD model [1]: improve motor deficits | D3 receptor tolerance and SRT properties (agonist-induced GIRK response) (D3 dopamine receptor): did not induce tolerance and SRT; also recorded: did not show tolerance and SRT | D3 receptor tolerance and SRT properties (agonist-induced GIRK response) (D3 dopamine receptor; listed as ES 609): also abolished D3 receptor tolerance and SRT properties | effect on levodopa-induced dyskinesia (AIMs score) [2]: improve levodopa-induced dyskinesia

CCCN1CC[C@@H]2c3cc(O)ccc3CC[C@@H]21 [PBZI, (3aS,9bR)-3-propyl-1,2,3a,4,5,9b-hexahydrobenzo[e]indol-8-ol]
Adenylyl cyclase inhibition: agonist type (D2L dopamine receptor): full agonist and full | EC50 (D2L dopamine receptor; AtT-20 cells, D2L, read-out: Adenylyl cyclase inhibition EC50): 67 nM | Adenylyl cyclase inhibition Ratio of PBZI to quinpirole response (at 300 nM) (D2L dopamine receptor; D2L, 300 nM): 0.83 | Adenylyl cyclase inhibition: agonist type (D4.2 dopamine receptor): elicited no response and no | Adenylyl cyclase inhibition EC50 (D4.2 dopamine receptor; AtT-20 cells, D4.2): No response | Adenylyl cyclase inhibition Ratio of PBZI to quinpirole response (at 300 nM) (D4.2 dopamine receptor; D4.2, 300 nM): 0^† | adenylyl cyclase inhibition at 300 nM (D4.2 dopamine receptor; D4.2, 300 nM): ^†no adenylyl cyclase inhibition in the presence of 300 nM PBZI; but 300 nM quinpirole elicits ~70% inhibition. | motor deficits in a rat PD model [1]: improve motor deficits | effect on beneficial effect of levodopa on bradykinesia/akinesia (stepping test) ([1]; co-administration of PBZI and levodopa): did not attenuate the beneficial effect of levodopa | D3 receptor tolerance and SRT properties (agonist-induced GIRK response) (D3 dopamine receptor): does not elicit tolerance and SRT properties; also recorded: abolished both tolerance and SRT properties; also recorded: did not induce tolerance; also recorded: does not induce tolerance and SRT; also recorded: did not show either tolerance or SRT properties; also recorded: completely abolished the receptors' tolerance and SRT properties | D3 receptor tolerance and SRT properties (agonist-induced GIRK response) (D3 dopamine receptor; listed as cis-80H-PBZI): abolished the tolerance property | dyskinesia induced by the compound itself, before levodopa administration ([2]; PD128907 0.1 mg/kg sc): did not induce dyskinesia | effect on levodopa-induced dyskinesia (AIMs score) [2]: reduces AIM scores; also recorded: significantly reduced the AIM score; also recorded: delayed the onset of levodopa induced dyskinesia; also recorded: delayed and reduced the dyskinesia induced by levodopa; also recorded: improve levodopa-induced dyskinesia

Source: patent US9289400B2, “D3 dopamine receptor agonists to treat dyskinesia in parkinson's disease” (priority 2010, dated 2016)
